Source: publication PMC6522510 (Nature Communications, 2019)
Counter-ions that a name gives are not always drawn. Like-named read-outs stand apart in the source and are kept apart here. Square brackets hold non-standard residues; d marks the D form. Peptide text beside a SMILES is read from it. * marks the point of attachment. Sta = CC(C)C[C@H](N)[C@@H](O)CC(=O)O; Isovaleryl = CC(C)CC(=O)*

How the values were obtained:
Parameters in all cases: species or system AML cell lines (8); Primary HTS, single concentration about 10 uM, Cell Titer Glo viability; log10 luminescence, per cent inhibition relative to cycloheximide control
Settings in all cases: 72 h, relative to cycloheximide control, log10 luminescence, inhibitor
MV4-11 = tested on: MV4-11
MOLM-13 = tested on: MOLM-13
CMK = tested on: CMK
CMS = tested on: CMS
ML-2 = tested on: ML-2
CHRF288-11 = tested on: CHRF288-11
U937 = tested on: U937
M07e = tested on: M07e

Compound	MV4-11 %inh (MV4-11) [%]	MOLM-13 %inh (MOLM-13) [%]	CMK %inh (CMK) [%]	CMS %inh (CMS) [%]	ML-2 %inh (ML-2) [%]	CHRF288-11 %inh (CHRF288-11) [%]	U937 %inh (U937) [%]	M07e %inh (M07e) [%]	MV4-11 %inh (MV4-11; MV4-11 %inh, 10 µM) [%]	MOLM-13 %inh (MOLM-13; MOLM-13 %inh, 10 µM) [%]	CMK %inh (CMK; CMK %inh, 10 µM) [%]	CMS %inh (CMS; CMS %inh, 10 µM) [%]	ML-2 %inh (ML-2; ML-2 %inh, 10 µM) [%]	CHRF288-11 %inh (CHRF288-11; CHRF288-11 %inh, 10 µM) [%]	U937 %inh (U937; U937 %inh, 10 µM) [%]	M07e %inh (M07e; M07e %inh, 10 µM) [%]
C[C@H](CCC(=O)O)[C@H]1CC[C@H]2[C@@H]3CC[C@@H]4C[C@H](O)CC[C@]4(C)[C@H]3CC[C@]12C [SJ000286918-3, LITHOCHOLIC ACID]	1.619	2.496	-0.09844	2.61	1.903	7.532	0.7056	1.09	–	–	–	–	–	–	–	–
CC1(C)O[C@@H]2C[C@H]3[C@@H]4CCC5=CC(=O)CC[C@]5(C)[C@@]4(F)[C@@H](O)C[C@]3(C)[C@]2(C(=O)CCl)O1 [SJ000286948-3, HALCINONIDE]	4.793	15.68	7.614	6.83	2.814	0.4115	10.5	-3.04	–	–	–	–	–	–	–	–
CCCC(CCC)C(=O)O [SJ000287008-5, VALPROATE SODIUM | VALPROIC ACID SODIUM | DIVALPROEX SODIUM | SODIUM VALPROATE | ABBOTT-44090 | NIK-313 | NIK-317 | VALPROATE SODIUM | VALPROIC ACID SODIUM SALT | | SODIUM VALPROATE | VALPROATE SODIUM | VALPROIC ACID SODIUM SALT | ABBOTT-44090 | NIK-313 | NIK-317 | | SODIUM VALPROATE | VALPROIC ACID SODIUM SALT (SODIUM VALPROATE)]	–	–	–	–	–	–	–	–	-0.02212	-1.216	-3.296	1.675	0.7854	8.896	-1.54	-4.206
CCCC(CCC)C(=O)O [SJ000287008-6, VALPROATE SODIUM | VALPROIC ACID SODIUM | DIVALPROEX SODIUM | SODIUM VALPROATE | ABBOTT-44090 | NIK-313 | NIK-317 | VALPROATE SODIUM | VALPROIC ACID SODIUM SALT | | SODIUM VALPROATE | VALPROATE SODIUM | VALPROIC ACID SODIUM SALT | ABBOTT-44090 | NIK-313 | NIK-317 | | SODIUM VALPROATE | VALPROIC ACID SODIUM SALT (SODIUM VALPROATE)]	–	–	–	–	–	–	–	–	-1.147	-2.019	-3.672	-1.126	-1.422	0.5614	-3.41	-0.5439
CC1(C)O[C@@H]2C[C@H]3[C@@H]4C[C@H](F)C5=CC(=O)C=C[C@]5(C)[C@@]4(F)[C@@H](O)C[C@]3(C)[C@]2(C(=O)CO)O1 [SJ000287016-2, FLUOCINOLONE ACETONIDE]	1.404	1.204	-1.286	9.034	2.188	4.658	7.141	-0.198	–	–	–	–	–	–	–	–
C[C@]12CCC(=O)C=C1CC[C@@H]1[C@@H]2C(=O)C[C@@]2(C)[C@H]1CC[C@]2(O)C(=O)CO [SJ000287023-7, CORTISONE]	-0.1807	-2.413	-2.132	-0.2521	-0.1775	8.551	-1.735	-0.4313	–	–	–	–	–	–	–	–
CCOC(=O)[C@H](CCc1ccccc1)N[C@@H](C)C(=O)N1[C@H](C(=O)O)C[C@@H]2CCC[C@@H]21 [SJ000287048-3]	3.659	-1.2	1.362	-0.1854	-0.556	-4.815	1.846	-2.965	–	–	–	–	–	–	–	–
C[C@@H]1C[C@H]2[C@@H]3C[C@H](F)C4=CC(=O)C=C[C@]4(C)[C@@]3(F)[C@@H](O)C[C@]2(C)[C@@]1(O)C(=O)CO [SJ000287102-3, FLUMETHASONE]	-0.9154	0.6987	4.189	2.822	1.1	4.435	4.356	-0.252	–	–	–	–	–	–	–	–
CC1(C)O[C@@H]2C[C@H]3[C@@H]4C[C@H](F)C5=CC(=O)CC[C@]5(C)[C@H]4[C@@H](O)C[C@]3(C)[C@]2(C(=O)CO)O1 [SJ000287138-3, FLURANDRENOLIDE]	-1.501	-1.421	-0.8734	0.1237	-1.728	7.802	5.849	-0.6056	–	–	–	–	–	–	–	–
CC(C)(C)c1ccc(C(O)CCCN2CCC(C(O)(c3ccccc3)c3ccccc3)CC2)cc1 (stereo not shown) [SJ000287189-5, TERFENADINE]	1.084	-1.727	-4.344	-3.743	1.525	1.988	0.7714	132.8	–	–	–	–	–	–	–	–
NCC1(CC(=O)O)CCCCC1 [SJ000287210-5, GABAPENTIN]	5.813	0.8376	0.3533	-2.432	-3.023	-2.43	-1.755	-2.786	–	–	–	–	–	–	–	–
CC(C)CC(=O)N[C@H](C(=O)N[C@H](C(=O)N[C@@H](CC(C)C)[C@@H](O)CC(=O)N[C@@H](C)C(=O)N[C@@H](CC(C)C)[C@@H](O)CC(=O)O)C(C)C)C(C)C [SJ000287258-3, PEPSTATIN A] (Isovaleryl-VV[Sta]A[Sta]-OH)	–	–	–	–	–	–	–	–	0.8934	-0.1246	-4.878	1.08	1.096	20.49	4.393	1.266
CC(C)CC(=O)N[C@H](C(=O)N[C@H](C(=O)N[C@@H](CC(C)C)[C@@H](O)CC(=O)N[C@@H](C)C(=O)N[C@@H](CC(C)C)[C@@H](O)CC(=O)O)C(C)C)C(C)C [SJ000287258-4, PEPSTATIN A] (Isovaleryl-VV[Sta]A[Sta]-OH)	–	–	–	–	–	–	–	–	2.97	0.9923	-1.598	2.288	-2.254	-1.709	-1.362	-0.4461
C=CC1=C(C(=O)O)N2C(=O)[C@@H](NC(=O)/C(=N\OCC(=O)O)c3csc(N)n3)[C@H]2SC1 [SJ000287284-2, CEFIXIME]	-3.36	0.1743	0.8991	-2.931	-0.1874	-7.075	0.1666	-4.21	–	–	–	–	–	–	–	–
CN(CCCCCCCCCCN(C)C(=O)Oc1cccc([N+](C)(C)C)c1)C(=O)Oc1cccc([N+](C)(C)C)c1 [SJ000287334-2, DEMECARIUM BROMIDE]	–	–	–	–	–	–	–	–	26.64	14.75	0.3844	0.249	3.342	5.292	24.11	6.779
CN(CCCCCCCCCCN(C)C(=O)Oc1cccc([N+](C)(C)C)c1)C(=O)Oc1cccc([N+](C)(C)C)c1 [SJ000287334-3, DEMECARIUM BROMIDE]	–	–	–	–	–	–	–	–	33.39	13.7	4.147	4.988	2.323	-4.258	32.99	11.04
CNCC(O)c1ccc(OC(=O)C(C)(C)C)c(OC(=O)C(C)(C)C)c1 (stereo not shown) [SJ000287343-2, DIPIVEFRIN HYDROCHLORIDE]	8.373	33.32	-4.432	-0.6385	3.768	9.226	7.06	1.591	–	–	–	–	–	–	–	–
